Results reported in patent US6905716B2, “Propionic acid based preservative agent for animal and vegetable products” (TINE Norske Meierier BA, priority 2000, dated 2005).

Tests used:
[1] = tested on: undesirable microorganisms; details: typically 0.1-0.5 g/l; potassium sorbate and/or sodium benzoate
[2] = tested on: grass; experiment: Ensilage of grass in preserving jars, Example 4; details: laboratory silos
Protocol: The jars were stored in a climatic test chamber at 20° C. For the control without ensiling agent, water was added in a volume equivalent to 15 weight % FLP with and without bacteria. The additive of 40% weight FLP was added in an amount corresponding to 6 liters/tonne of grass. The FLP consisted of ¾ lactose and salts and ¼ organic acids (the ratio of propionic acid to lactic acid was 1:3). The agent with bacteria contained 8 log10 colony forming units of lactic acid bacteria per ml FLP and <8 log10 cfu propionic acid bacteria per ml FLP.

Structure (SMILES): O=C([O-])c1ccccc1.[Na+] [sodium benzoate]
- risk of contamination by undesirable microorganisms during fermentation [1]: reduced the risk of contamination

Structure (SMILES): O=CO [formic acid]
- silage effluent, formic acid compared with addition of FLP [2]: More silage effluent

Structure (SMILES): C/C=C/C=C/C(=O)[O-].[K+] [potassium sorbate]
- risk of contamination by undesirable microorganisms during fermentation [1]: reduced the risk of contamination
